In patent US6540996B1, “Compound screening methods” (priority 1999, dated 2003):

Experiments:
C. elegans [1] = test: liquid assay: compound administered to the worm in liquid culture; type: in vivo
Text: (§1) Using two kinds of assays, the optimal concentration of compounds that inhibit the activity SERCA has been determined. The first assay is designated the drop or plate assay in which the nematodes are fed E. coli strains pre-loaded with the compound. In a second assay, the compound is administrated to the worm in liquid culture.

C. elegans [2] = test: plate (drop) assay: nematodes fed E. coli lawn pre-loaded with the compound; type: in vivo
Procedure: as §1
A standard plate drop assay is performed according to the following protocol. 4 ml NGM agar (see “The nematode C. elegans” Ed. by William B. Wood and the Community of C. elegans Researchers, CSHL Press, 1988, pg589) is into 3 cm plates and seeded with approximately 5 μl of an E. coli overnight culture and grown preferably for one week at room temperature. Approximately 10 μl of test compound dissolved in DMSO or other suitable solvent is pipetted onto the bacterial lawn so that the lawn is covered completely. After overnight soaking in or compound, one C. elegans (L4 stage) per plate is put onto the bacterial lawn. Plates are incubated at 21° C. and checked after some hours.

SERCA Phe256Val = settings: substitution Phe256Val in hamsters (Yu et al., 1999); cited from earlier work
[3] = test system: C. elegans strains unc-31 and srf-3; test: production of progeny after thapsigargin treatment in different C. elegans strains; type: in vivo
Procedure: The effect of thapsigargin on the production of progeny was determined for a number of different C. elegans strains. The numbers of progeny produced following thapsigargin treatment was counted for an average of 15 animals, the results are summarised as follows: […]

[4] = test system: C. elegans wild-type worms and mutant strain unc-31; test: effect on pharynx pumping behaviour; type: in vivo
Procedure: The effect of thapsigargin on pharynx pumping behaviour was also determined. In wild-type worms, all animals stopped pumping after 10 minutes.

[5] = test system: C. elegans strain UG530 (harboring plasmid pGK28); test: thapsigargin sensitivity of worms carrying the pGK28 (Phe259Val SERCA) transgene; type: in vivo; settings: for stage reached by progeny on thapsigargin: 10 μl drops of 5 to 0.05 mM thapsigargin in DMSO, 5 days
Procedure: FIG. 3 illustrates the growth of C. elegans strain UG530 (strain harboring plasmid pGK28) on different concentrations of thapsigargin. The stage of the progeny was determined 5 days after adults were put on the plates. […] These were differentiated based on a GFP marker also present on this transgene.
The effect of thapsigargin on worms carrying a pGK28 transgene was measured in the following way: 10 μl of thapsigargin dissolved in DMSO (5, 2.5, 1, 0.5, 0.25, 0.1, and 0.05 mM respectively) was added onto a drop of E. coli strain OP50cs2 in 12-well plates. The wells with compounds were placed at 10 C. overnight, after which […] young adults were added to the wells. The pharynx pumping rate and movement behaviour was scored for the ten worms after 10 minutes and after one hour (short term effect). Furthermore the wells were scored for protruding vulva and rectum, production of progeny (few eggs in body) after one day (mid-term-effects), and for progeny after four days (long term effect)

[6] = mutant strain unc-31, 1 mM thapsigargin

## CC(C)(C)c1cc(O)c(C(C)(C)C)cc1O [2,5-di-tert butylhydroquinone]
C. elegans [1]; 1 mM
  phenotype of worms and progeny: progeny exhibiting delayed growth and the worms be observed to be thinner
C. elegans [2]; 500 μM
  phenotype of the worms: pale, starved, thin worms with slow movement, defective gonad, constipated and reduced brood size

## C/C=C(/C)C(=O)O[C@H]1C(C)=C2[C@H]([C@@H]1OC(=O)CCCCC)[C@@](C)(OC(C)=O)C[C@H](OC(=O)CCC)[C@@]1(O)[C@H]2OC(=O)[C@@]1(C)O [Thapsigargicin]
C. elegans [1]; 1000 μM, 250 μM, 62.5 μM and 16 μM
  phenotype of worms and progeny: small worms with slow and loopy movement, a protruding vulva, and no progeny (or no progeny that grows up)
C. elegans [1]; lower concentration 10 μM
  growth and progeny: delayed growth and reduced progeny
C. elegans [2]; lower concentrations 3 μM and 1.5 μM
  brood size: slightly reduced brood size

## O=C1C=CC(=O)C=C1 [1,4-benzoquinone]
C. elegans [2]; 100 mM drop, 500 μM end concentration
  observable effect at the highest concentration tested: did not result in a clear observable effect

## C/C=C(/C)C(=O)O[C@H]1C(C)=C2[C@H]([C@@H]1OC(=O)CCCCCCC)[C@@](C)(OC(C)=O)C[C@H](OC(=O)CCC)[C@@]1(O)[C@H]2OC(=O)[C@@]1(C)O [thapsigargin]
C. elegans [1]; 100, 50 and 20 μM
  size and movement of the worms: small worms which show slow and loopy movement
  vulva and progeny: protruding vulva, and no progeny (or no progeny that grows up)
C. elegans [1]; lower concentrations 10 μM and 5 μM
  progeny and growth: reduced number of progeny and delayed growth
SERCA Phe256Val
  resistance to thapsigargin inhibition: 40 fold
[3]; strain srf-3, 1 mM thapsigargin, average of 15 animals (control 50)
  number of progeny produced: 18,3
[3]; strain unc-31, 0.5 mM thapsigargin, average of 15 animals (control 132)
  number of progeny produced: 35
[3]; strain unc-31, 1 mM thapsigargin, average of 15 animals (control 132)
  number of progeny produced: 5,6
C. elegans [2]; 5 μM, 2.5 μM and 1.25 μM
  appearance and movement of the worms: pale and thin and have a slow and irregular movement, with an increased amplitude
  brood size: very small
  gonad, eggs and vulva: defective gonad with only very few eggs, and a protruding vulva
  plate drop response, backing, pumping, constipation: No plate drop response is observed, and the worms show poor backing, reduced pumping and strong constipation
  rectum: Some worms also have a protruding rectum
  restart of pharynx pumping: Within an hour the worms restart pumping, although at a low level
  time until the nematode stops pharynx pumping: ≤ 10 min
C. elegans [2]; 5 μM, 2.5 μM and 1.25 μM, after four days
  stage reached by progeny: Progeny reaches L2 stage only after four days
C. elegans [2]; lower concentrations 0.5 μM, 0.25 μM, 0.125 μM
  brood size: reduced brood size
[4]; [6]
  pumping speed after restart: one third of normal speed
  restart of pumping: some start again after half an hour
  time after which all worms stopped pumping: 10 min
[4]; wild-type worms
  time after which all animals stopped pumping: 10 min
[5]; GFP-animals harboring pGK28 (Phe259Val SERCA)
  stage reached by progeny on thapsigargin: grew up to adult or L4
[5]; nematodes harboring the Phe259Val SERCA mutant compared with wild-type
  amount of progeny on thapsigargin: slightly more progeny than wild-type
[5]; non-GFP animals (not harboring the mutated SERCA)
  stage reached by progeny on thapsigargin: arrested at L1 and L2 and never grew up further than L3
[5]; strain UG530 (harboring pGK28) treated with thapsigargin
  protruding vulva and rectum-phenotype: not or were only occasionally observed
[5]; wild-type nematodes treated with thapsigargin
  protruding vulva and rectum-phenotype: very often observed
